{
  "source": "ChEMBL document CHEMBL4190168",
  "about": "(Medchemcomm, 2016)",
  "note": "Active and inactive are the calls of the source. No cut-off for these calls is given here.",
  "data": [
    {"tested_on": "EA.hy 926", "experiment": "Anti-migratory activity against human EAhy926 cells assessed as inhibition of VEGF-induced cell migration towards wound area after 24 hrs by phase contrast microscopic analysis", "format": "functional, cell-based", "conditions": "not given", "values": [
      {"smiles": "COc1ccc(-c2nc(CNCCCCCNCc3cc4c5ccccc5n(C)c4c(-c4ccc(OC)cc4)n3)cc3c4ccccc4n(C)c23)cc1", "inhibition": "Dose-dependent effect"}
    ]},
    {"tested_on": "EA.hy 926", "experiment": "Antiangiogenic activity in human EAhy926 cells assessed as inhibition of VEGF-induced capillary tube formation after 24 hrs by matrigel based phase contrast microscopic analysis", "format": "functional, cell-based", "conditions": "not given", "values": [
      {"smiles": "COc1ccc(-c2nc(CNCCCCCNCc3cc4c5ccccc5n(C)c4c(-c4ccc(OC)cc4)n3)cc3c4ccccc4n(C)c23)cc1", "inhibition": "Dose-dependent effect"}
    ]},
    {"tested_on": "not listed separately", "experiment": "Solubility of the compound in water", "format": "physicochemical", "conditions": "not given", "units": {"solubility": "µg/mL"}, "values": [
      {"smiles": "Cl.c1ccc(Cn2c3ccccc3c3cc(CNCCCCCCNCc4cc5c6ccccc6n(Cc6ccccc6)c5c(-c5ccccc5)n4)nc(-c4ccccc4)c32)cc1", "solubility": "> 10000"},
      {"smiles": "Cc1nc(CNCCCNCc2cc3c4ccccc4n(CC(C)C)c3c(C)n2)cc2c3ccccc3n(CC(C)C)c12.Cl", "solubility": "> 10000"},
      {"smiles": "Cc1nc(CNCCCCNCc2cc3c4ccccc4n(CC(C)C)c3c(C)n2)cc2c3ccccc3n(CC(C)C)c12.Cl", "solubility": "> 10000"},
      {"smiles": "Cc1nc(CNCCCCCCNCc2cc3c4ccccc4n(C)c3c(C)n2)cc2c3ccccc3n(C)c12.Cl", "solubility": "> 10000"},
      {"smiles": "CCCCn1c2ccccc2c2cc(CNCCCCNCc3cc4c5ccccc5n(CCCC)c4c(C)n3)nc(C)c21.Cl", "solubility": "> 10000"},
      {"smiles": "Cc1nc(CNCCCCNCc2cc3c4ccccc4n(C)c3c(C)n2)cc2c3ccccc3n(C)c12.Cl", "solubility": "> 10000"},
      {"smiles": "Cc1nc(CNCCCCNCc2cc3c4ccccc4n(Cc4ccccc4)c3c(C)n2)cc2c3ccccc3n(Cc3ccccc3)c12.Cl", "solubility": "> 10000"},
      {"smiles": "CCn1c2ccccc2c2cc(CNCCCNCc3cc4c5ccccc5n(CC)c4c(-c4cc(OC)c(OC)c(OC)c4)n3)nc(-c3cc(OC)c(OC)c(OC)c3)c21.Cl", "solubility": "> 10000"},
      {"smiles": "CC(C)c1nc(CNCCCNCc2cc3c4ccccc4n(Cc4ccccc4)c3c(C(C)C)n2)cc2c3ccccc3n(Cc3ccccc3)c12.Cl", "solubility": "> 10000"},
      {"smiles": "COc1cc(-c2nc(CNCCCCCCNCc3cc4c5ccccc5n(CCCc5ccccc5)c4c(-c4cc(OC)c(OC)c(OC)c4)n3)cc3c4ccccc4n(CCCc4ccccc4)c23)cc(OC)c1OC.Cl", "solubility": "> 10000"},
      {"smiles": "CCCCn1c2ccccc2c2cc(CNCCCCNCc3cc4c5ccccc5n(CCCC)c4c(-c4ccc(Cl)cc4)n3)nc(-c3ccc(Cl)cc3)c21.Cl", "solubility": "> 10000"},
      {"smiles": "Cl.Clc1ccc(-c2nc(CNCCCCCCNCc3cc4c5ccccc5n(Cc5ccccc5)c4c(-c4ccc(Cl)cc4)n3)cc3c4ccccc4n(Cc4ccccc4)c23)cc1", "solubility": "> 10000"},
      {"smiles": "COc1ccc(-c2nc(CNCCCCCNCc3cc4c5ccccc5n(C)c4c(-c4ccc(OC)cc4)n3)cc3c4ccccc4n(C)c23)cc1.Cl", "solubility": "> 10000"},
      {"smiles": "Cc1nc(CNCCCCNCc2cc3c4ccccc4n(C(C)C)c3c(C)n2)cc2c3ccccc3n(C(C)C)c12.Cl", "solubility": "> 10000"},
      {"smiles": "Cl.Clc1ccc(-c2nc(CNCCCCCNCc3cc4c5ccccc5n(Cc5ccccc5)c4c(-c4ccc(Cl)cc4)n3)cc3c4ccccc4n(Cc4ccccc4)c23)cc1", "solubility": "> 10000"},
      {"smiles": "Cc1nc(CNCCCNCc2cc3c4ccccc4n(Cc4cccc(Cl)c4)c3c(C)n2)cc2c3ccccc3n(Cc3cccc(Cl)c3)c12.Cl", "solubility": "> 10000"},
      {"smiles": "CCCCn1c2ccccc2c2cc(CNCCCNCc3cc4c5ccccc5n(CCCC)c4c(-c4ccc(Cl)cc4)n3)nc(-c3ccc(Cl)cc3)c21.Cl", "solubility": "> 10000"},
      {"smiles": "CC(C)c1nc(CNCCCCCNCc2cc3c([nH]c4ccccc43)c(C(C)C)n2)cc2c1[nH]c1ccccc12.Cl", "solubility": "> 10000"},
      {"smiles": "Cc1nc(CNCCCNCc2cc3c4ccccc4n(CCCc4ccccc4)c3c(C)n2)cc2c3ccccc3n(CCCc3ccccc3)c12.Cl", "solubility": "> 10000"},
      {"smiles": "COc1ccc(-c2nc(CNCCCCCCNCc3cc4c5ccccc5n(Cc5ccccc5)c4c(-c4ccc(OC)cc4)n3)cc3c4ccccc4n(Cc4ccccc4)c23)cc1.Cl", "solubility": "> 10000"},
      {"smiles": "COc1ccc(-c2nc(CNCCCCNCc3cc4c([nH]c5ccccc54)c(-c4ccc(OC)cc4)n3)cc3c2[nH]c2ccccc23)cc1.Cl", "solubility": "> 10000"},
      {"smiles": "Cl.Cn1c2ccccc2c2cc(CNCCCCNCc3cc4c5ccccc5n(C)c4c(-c4ccccc4)n3)nc(-c3ccccc3)c21", "solubility": "> 10000"},
      {"smiles": "COc1ccc(-c2nc(CNCCCCNCc3cc4c5ccccc5n(C)c4c(-c4ccc(OC)cc4)n3)cc3c4ccccc4n(C)c23)cc1.Cl", "solubility": "> 10000"},
      {"smiles": "CCCCn1c2ccccc2c2cc(CNCCCCCNCc3cc4c5ccccc5n(CCCC)c4c(C(C)C)n3)nc(C(C)C)c21.Cl", "solubility": "> 10000"},
      {"smiles": "CCCCCCn1c2ccccc2c2cc(CNCCCCCCNCc3cc4c5ccccc5n(CCCCCC)c4c(-c4ccc(OC)cc4)n3)nc(-c3ccc(OC)cc3)c21.Cl", "solubility": "> 10000"}
    ]},
    {"tested_on": "Chorioallantoic membrane", "experiment": "Antiangiogenic activity in chicken fertilized egg chorioallantoic membrane at 30 uM after 48 hrs by microscopic analysis", "format": "functional, tissue-based", "conditions": "Gallus gallus", "values": [
      {"smiles": "COc1ccc(-c2nc(CNCCCCCNCc3cc4c5ccccc5n(C)c4c(-c4ccc(OC)cc4)n3)cc3c4ccccc4n(C)c23)cc1", "Activity": "Active"}
    ]}
  ]
}
